Assay results taken from US11623919B2, “Heterocyclic P2X7 antagonists” (AXXAM S.P.A., priority 2017, dated 2023).

Assays:
Assay type in all cases: cell-based
P2X7 receptor [1] = target: T1, P2X7 receptor (Homo sapiens, UniProt Q99572); assay: Automated patch-clamp (QPatch16X) P2X7 channel assay; set-up: expressed in transfected cells; host or cells: HEK-293; settings: HEK-293 cells expressing P2X7 channels; whole-cell, held at -80 mV; 100 microM BzATP; compound 1, 10, 100 and 1000 nM; read-out: Q-Patch (IC50)
T1 sequence (Q99572 1-595): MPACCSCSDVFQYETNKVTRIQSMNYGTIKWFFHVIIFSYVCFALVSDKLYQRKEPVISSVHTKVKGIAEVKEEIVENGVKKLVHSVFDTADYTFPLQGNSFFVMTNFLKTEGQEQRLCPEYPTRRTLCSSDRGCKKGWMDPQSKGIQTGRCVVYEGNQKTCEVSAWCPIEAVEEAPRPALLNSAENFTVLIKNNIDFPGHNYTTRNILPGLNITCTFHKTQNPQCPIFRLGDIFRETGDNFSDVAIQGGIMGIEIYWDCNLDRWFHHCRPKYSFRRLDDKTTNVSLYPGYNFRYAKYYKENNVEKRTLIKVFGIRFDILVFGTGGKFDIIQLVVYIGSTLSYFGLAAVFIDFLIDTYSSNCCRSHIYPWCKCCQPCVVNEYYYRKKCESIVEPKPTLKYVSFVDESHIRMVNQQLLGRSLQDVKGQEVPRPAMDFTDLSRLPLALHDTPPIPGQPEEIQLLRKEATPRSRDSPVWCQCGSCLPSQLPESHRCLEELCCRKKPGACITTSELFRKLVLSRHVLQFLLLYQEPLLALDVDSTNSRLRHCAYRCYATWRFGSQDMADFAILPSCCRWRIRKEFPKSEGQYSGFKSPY
Method: In order to directly monitor the block of P2X7 channel, an electrophysiological assay was developed and implemented on the QPatch16X automated electrophysiology instrument.
HEK-293 cells expressing the P2X7 channels were cultured in modified EMEM.
72 hours before experiment, 5 million cells were seeded onto T225 flasks. Just before the experiment cells were washed twice, detached from the flask with trypsin-EDTA, re-suspended in the suspension solution and placed on the QPatch 16x.
The compounds (20 mM in a 100% DMSO) stored at −20° C. were prepared the day of the experiment (a first dilution 1:20 in 100% DMSO to prepare a 1 mM stock solution, then a 1 microM solution in external solution+a serial dilution 1:10).
The standard whole-cell voltage clamp experiments were performed at room temperature. From these experiments the multihole technology was used and the data were sampled at 2 KHz.
The intracellular solution contained (mM) 135 CsF, 10 NaCl, 1 EGTA, 10 HEPES, (pH 7.2 with CsOH) whereas the extracellular contained (mM) 145 NaCl, 4 KCl, 0.5 MgCl2, 1 CaCl2, 10 HEPES, 10 Glc (pH 7.4 with NaOH).
After establishment of the seal and the passage in the whole cell configuration, the cells were held at −80 mV. The P2XR7 current was evoked by applying 100 microM of BzATP alone (4 times) and then in the presence increasing concentrations of the compound under investigation (1, 10, 100 and 1000 nM).
The pre-incubation periods 5 to 8 contain increasing concentrations of the compound of interest (1, 10, 100 and 1000 nM), as illustrated in FIGURE (application protocol).
The maximal inward current evoked by BzATP in absence or presence of increasing concentrations of the compounds under investigation was measured and normalized. The potential […] effect was measured as % of control and as IC50 determined fitting the dose-response curves data with the following equation: Y=100/(1+10^((Log IC50−X)*HillSlope))

P2X7 receptor [2] = target: T1, P2X7 receptor; assay: Screen Quest Fluo-8 No Wash Calcium Assay (Bz-ATP evoked Ca2+ influx, FLIPR); set-up: hP2X7 (IC50; nM); other: hP2X7; HEK-293 cells stably transfected with P2X7 receptor, Bz-ATP at EC80, Fluo-8 NW; potency; settings: hP2X7; HEK-293 cells stably transfected with P2X7 receptor, Bz-ATP at EC80, Fluo-8 NW; potency ranges A-D
Summary of the method: (§1)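 HEK-293 cells stably expressing P2X7 were loaded with Fluo-8 NW for 1 h at RT, then given compound, and 5 min later Bz-ATP at EC80. Fluorescence was read by FLIPR in low divalent cation buffer (0.3 mM Ca2+, 0 mM Mg2+). IC50 came from percent inhibition relative to reference antagonist A438079.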

P2X7 receptor [3] = target: T2, P2X7 receptor (Mus musculus, UniProt Q9Z1M0); assay: as above; settings: mP2X7; HEK-293 cells stably transfected with P2X7 receptor, Bz-ATP at EC80, Fluo-8 NW; potency ranges A-D
T2 construct: mP2X7 (IC50; nM); other: mP2X7; HEK-293 cells stably transfected with P2X7 receptor, Bz-ATP at EC80, Fluo-8 NW; potency
T2 sequence (Q9Z1M0 1-595): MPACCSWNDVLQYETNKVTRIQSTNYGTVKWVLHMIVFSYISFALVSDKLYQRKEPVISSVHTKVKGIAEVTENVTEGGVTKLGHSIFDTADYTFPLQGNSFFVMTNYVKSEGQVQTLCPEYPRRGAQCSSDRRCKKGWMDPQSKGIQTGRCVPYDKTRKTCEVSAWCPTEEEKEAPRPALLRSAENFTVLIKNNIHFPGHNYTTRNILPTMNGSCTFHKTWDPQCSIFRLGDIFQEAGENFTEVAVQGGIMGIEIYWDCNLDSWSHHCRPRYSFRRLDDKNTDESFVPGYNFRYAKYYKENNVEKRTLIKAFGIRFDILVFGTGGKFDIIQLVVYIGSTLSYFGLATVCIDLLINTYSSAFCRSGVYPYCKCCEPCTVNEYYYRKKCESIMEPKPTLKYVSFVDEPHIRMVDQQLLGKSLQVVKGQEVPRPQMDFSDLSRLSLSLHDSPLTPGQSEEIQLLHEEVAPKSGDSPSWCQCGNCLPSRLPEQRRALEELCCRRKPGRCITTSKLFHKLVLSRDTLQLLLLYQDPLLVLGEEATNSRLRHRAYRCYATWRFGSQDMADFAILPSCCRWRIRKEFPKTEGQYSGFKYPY
Summary of the method: as §1

| SMILES | IC50 (P2X7 receptor [1]) | IC50 (P2X7 receptor [2]) | IC50 (P2X7 receptor [3]) |
| --- | --- | --- | --- |
| O=c1onc(Cc2c(F)cccc2Cl)n1CC1CCC(F)(F)CC1 [Example 84, 3-[(2-chloro-6-fluorophenyl)methyl]-4-[(4,4-difluorocyclohexyl)methyl]-4,5-dihydro-1,2,4-oxadiazol-5-one] | 8.43 nM | < 200 nM | < 200 nM |
| O=c1onc(Cc2c(F)cccc2Cl)n1CC12CCC(CC1)C2 [Example 91, 4-{bicyclo [2.2.1]heptan-1-ylmethyl}-3-[(2-chloro-6-fluorophenyl)methyl]-4,5-dihydro-1,2,4-oxadiazol-5-one] | 22 nM | < 200 nM | 200 to 1000 nM |
| O=c1onc(Cc2c(F)cccc2Cl)n1CC1CC2CCC1C2 (stereo not drawn) [Example 88, 4-{bicyclo[2.2.1]heptan-2-ylmethyl}-3-[(2-chloro-6-fluorophenyl)methyl]-4,5-dihydro-1,2,4-oxadiazol-5-one] | 34.5 nM | < 200 nM | 200 to 1000 nM |
| O=c1onc(Cc2cccc(Cl)c2Cl)n1CC1CCCCC1 [Example 115, 4-(cyclohexylmethyl)-3-[(2,3-dichlorophenyl)methyl]-4,5-dihydro-1,2,4-oxadiazol-5-one] | 72.7 nM | 200 to 1000 nM | 1000 to 10000 nM |
| O=c1onc(Cc2c(F)cccc2Cl)n1Cc1ccc(Cl)cc1 [Example 65, 3-[(2-chloro-6-fluorophenyl)methyl]-4-[(4-chlorophenyl)methyl]-4,5-dihydro-1,2,4-oxadiazol-5-one] | 348 nM | 200 to 1000 nM | 1000 to 10000 nM |
| O=c1onc(Cc2ccc(F)cc2Cl)n1CC1CCCCC1 [Example 114, 3-[(2-chloro-4-fluorophenyl)methyl]-4-(cyclohexylmethyl)-4,5-dihydro-1,2,4-oxadiazol-5-one] | 165 nM | 200 to 1000 nM | 200 to 1000 nM |
| O=c1onc(Cc2c(F)cccc2Cl)n1Cc1ccc(F)cc1 [Example 55, 3-[(2-chloro-6-fluorophenyl)methyl]-4-[(4-fluorophenyl)methyl]-4,5-dihydro-1,2,4-oxadiazol-5-one] | 33.8 nM | 200 to 1000 nM | 200 to 1000 nM |
| O=c1onc(Cc2ccc(F)cc2F)n1CC1CCCCC1 [Example 119, 4-(cyclohexylmethyl)-3-[(2,4-difluorophenyl)methyl]-4,5-dihydro-1,2,4-oxadiazol-5-one] | 268 nM | 200 to 1000 nM | 200 to 1000 nM |
| O=c1onc(Cc2c(F)cccc2Cl)n1CC1(F)CCCCC1 [Example 96, 3-[(2-chloro-6-fluorophenyl)methyl]-4-[(1-fluorocyclohexyl)methyl]-4,5-dihydro-1,2,4-oxadiazol-5-one] | 245 nM | 200 to 1000 nM | 200 to 1000 nM |
| O=c1onc(Cc2ccc(F)cc2Cl)n1Cc1ccc(F)cc1 [Example 73, 3-[(2-chloro-4-fluorophenyl)methyl]-4-[(4-fluorophenyl)methyl]-4,5-dihydro-1,2,4-oxadiazol-5-one] | 423 nM | 200 to 1000 nM | 1000 to 10000 nM |
| O=c1onc(Cc2c(F)cccc2Cl)n1Cc1ccc(F)cc1Cl [Example 60, 4-[(2-chloro-4-fluorophenyl)methyl]-3-[(2-chloro-6-fluorophenyl)methyl]-4,5-dihydro-1,2,4-oxadiazol-5-one] | 623 nM | 200 to 1000 nM | 1000 to 10000 nM |
| O=c1onc(Cc2c(F)cccc2Cl)n1CC1CCCCC1(F)F (stereo not drawn) [Example 97, 3-[(2-chloro-6-fluorophenyl)methyl]-4-[(2,2-difluorocyclohexyl)methyl]-4,5-dihydro-1,2,4-oxadiazol-5-one] | 100 nM | < 200 nM | 200 to 1000 nM |
| O=c1onc(Cc2ccc(Cl)cc2Cl)n1CC1CCCCC1 [Example 118, 4-(cyclohexylmethyl)-3-[(2,4-dichlorophenyl)methyl]-4,5-dihydro-1,2,4-oxadiazol-5-one] | 1090 nM | 200 to 1000 nM | 1000 to 10000 nM |

Other lines, results leading:

| IC50 (P2X7 receptor [1]) | IC50 (P2X7 receptor [2]) | IC50 (P2X7 receptor [3]) | SMILES |
| --- | --- | --- | --- |
| 39.2 nM | 200 to 1000 nM | 1000 to 10000 nM | O=c1snc(Cc2c(F)cccc2Cl)n1CC1CCCCC1 [Example 140, 3-[(2-chloro-6-fluorophenyl)methyl]-4-(cyclohexylmethyl)-4,5-dihydro-1,2,4-thiadiazol-5-one] |
| 3.04 nM | < 200 nM | < 200 nM | O=c1snc(Cc2c(F)cccc2Cl)n1CC1CCC(F)(F)CC1 [Example 141, 3-[(2-chloro-6-fluorophenyl)methyl]-4-[(4,4-difluorocyclohexyl)methyl]-4,5-dihydro-1,2,4-thiadiazol-5-one] |
| 45.2 nM | < 200 nM | 200 to 1000 nM | O=c1onc(Cc2c(F)cccc2Cl)n1CC1CCC(F)(F)C1 (racemic) [Example 128, 3-[(2-chloro-6-fluorophenyl)methyl]-4-[(3,3-difluorocyclopentyl)methyl]-4,5-dihydro-1,2,4-oxadiazol-5-one] |
| 68.6 nM | < 200 nM | 200 to 1000 nM | O=c1onc(Cc2c(F)cccc2Cl)n1CC1CCC(F)(F)C1 (single isomer, unassigned) [Example 149, 3-(2-chloro-6-fluorobenzyl)-4-[(3,3-difluorocyclopentyl)methyl]-1,2,4-oxadiazol-5(4H)-one] |
| 162 nM | 200 to 1000 nM | 200 to 1000 nM | O=c1onc(Cc2ccccc2F)n1CC1CCCCC1 [Example 120, 4-(cyclohexylmethyl)-3-[(2-fluorophenyl)methyl]-4,5-dihydro-1,2,4-oxadiazol-5-one] |
| 149 nM | 200 to 1000 nM | 1000 to 10000 nM | Cc1noc(C)c1Cc1noc(=O)n1CC1CCCCC1 [Example 210, 4-(cyclohexylmethyl)-3-[(dimethyl-1,2-oxazol-4-yl)methyl]-4,5-dihydro-1,2,4-oxadiazol-5-one] |
| 94.8 nM | 200 to 1000 nM | 200 to 1000 nM | O=c1onc(CC2CCCCC2)n1Cc1c(F)cccc1Cl [Example 130, 4-[(2-chloro-6-fluorophenyl)methyl]-3-(cyclohexylmethyl)-4,5-dihydro-1,2,4-oxadiazol-5-one] |
